In US12391675B2, “NLRP3 modulators” (INNATE TUMOR IMMUNITY, INC., priority 2019, dated 2025):

biological target: T1, NLRP3 (Homo sapiens, UniProt Q96P20); assay: Measurement of IL-1β production in PMA-differentiated THP-1 cells (NLRP3 hIL1B EC50); type: cell-based
T1 construct: host or cells: PMA-differentiated THP-1 cells
Protocol: Measurement of IL-1β Production in PMA-Differentiated THP-1 Cells
THP-1 cells were purchased from the American Type Culture Collection and sub-cultured according to instructions from the supplier. Prior to experiments, cells were cultured in RPMI 1640 containing 10% heat inactivated FBS, penicillin (100 units/ml) and streptomycin (100 μg/ml), and maintained in log phase prior to experimental setup. Prior to the experiment THP-1 were treated with PMA (Phorbol 12-myristate 13-acetate) (10 μg/ml) for 24 hours. The day of the experiment the media was removed and attaching cells were treated with trypsin for 2 minutes, cells were then collected, washed with PBS (phosphate buffer saline), spin down, resuspended in 2% heat inactivated FBS with RPMI at a concentration of 1×10^6 cells/ml, and 100 μl was plated in a 96 well plate. Compounds were dissolved in dimethyl sulfoxide (DMSO) and added to the culture medium to achieve desired concentration (e.g. 100, 30, 10, 3, 1, 0.3 or 0.1 μM). Cells were incubated with compounds for 4 hours. Cell free supernatant was collected and the production of IL-1β was evaluated by ELISA. A vehicle only control was run concurrently with each experiment. Final DMSO concentration was 1%.
Measurement of IL-1β Production in PMA-Differentiated THP-1 Cells (Alternative Procedure)
THP-1 cells were purchased from the American Type Culture Collection and sub-cultured according to instructions from the supplier. Prior to experiments, cells were cultured in RPMI 1640 containing 10% heat inactivated FBS, penicillin (100 units/ml), streptomycin (100 μg/ml), HEPES (10 mM) and sodium pyruvate (1 mM) and maintained in log phase prior to experimental setup. Prior to the experiment, THP-1 cells were treated with PMA (Phorbol 12-myristate 13-acetate) (20 μg/ml) overnight. The day of the experiment, the media was removed and attached cells were treated with trypsin for 2 minutes, cells were then collected, washed with PBS (phosphate buffer saline), pelleted by centrifugation and resuspended in 2% heat inactivated FBS with RPMI at a concentration of 50,000 cells/well in a 384 well plate. Cell free supernatant was collected and the production of IL-1β was evaluated by ELISA. Compounds were dissolved in dimethyl sulfoxide (DMSO) and added to the culture medium to achieve desired concentration (e.g. 100, 30, 10, 3, 1, 0.3 or 0.1 μM). Cells were incubated with compounds for 2 hours. A vehicle only control was run concurrently with each experiment. Final DMSO concentration was 1%.
Measurement of IL-1β Production—hTRF Protocol (Second Alternative Procedure)
Serial dilutions of compounds in DMSO were added to low volume 384 well plates at 100 nl/well using an ECHO 550 acoustic dispenser (Labcyte) to achieve final starting concentration of 10 μM in assay.
THP-1 cells in RPMI (Gibco, 11875) media with 10% FBS at a density of 1×10^6 cell/ml in a T175 flask were treated with a final concentration of phorbol 12-myristate 13-acetate (PMA) (Sigma, P1585) of 50 ng/ml overnight at 37° C. at 5% CO2 for differentiation. Cells were harvested the next day after rinsing well wth dPBS using 0.5% trypsin. A cell solution was prepared of 1×10^6 cells/ml for 50,000 cells in 50 μl/well in RPMI media with 2% FBS. Cells were plated using a multichannel pipette onto the compound dilutions in Greiner, 384 well, black clear bottom tissue culture treated plates (781090). The plates were incubated in 37° C. incubator at 5% CO2 for 2 hours.
After the 2 hour incubation, the cell plates were spun in the centrifuge for 5 minutes at 1200 rpm. Using the Felix (CyBio), 8 μl of the supernatant was transferred to 384 well, low volume, white proxy plates. (Perkin Elmer, 6008230). A human IL1beta hTRF kit was used to analyze the supernatant (CISBIO, 62HIL1BPEG). The kit instructions were followed for preparing the IL1Beta standard curve and then the antibodies from the kit were diluted 1:40 rather than 1:20 as kit instructed. […]

T1 sequence (Q96P20 whole entry): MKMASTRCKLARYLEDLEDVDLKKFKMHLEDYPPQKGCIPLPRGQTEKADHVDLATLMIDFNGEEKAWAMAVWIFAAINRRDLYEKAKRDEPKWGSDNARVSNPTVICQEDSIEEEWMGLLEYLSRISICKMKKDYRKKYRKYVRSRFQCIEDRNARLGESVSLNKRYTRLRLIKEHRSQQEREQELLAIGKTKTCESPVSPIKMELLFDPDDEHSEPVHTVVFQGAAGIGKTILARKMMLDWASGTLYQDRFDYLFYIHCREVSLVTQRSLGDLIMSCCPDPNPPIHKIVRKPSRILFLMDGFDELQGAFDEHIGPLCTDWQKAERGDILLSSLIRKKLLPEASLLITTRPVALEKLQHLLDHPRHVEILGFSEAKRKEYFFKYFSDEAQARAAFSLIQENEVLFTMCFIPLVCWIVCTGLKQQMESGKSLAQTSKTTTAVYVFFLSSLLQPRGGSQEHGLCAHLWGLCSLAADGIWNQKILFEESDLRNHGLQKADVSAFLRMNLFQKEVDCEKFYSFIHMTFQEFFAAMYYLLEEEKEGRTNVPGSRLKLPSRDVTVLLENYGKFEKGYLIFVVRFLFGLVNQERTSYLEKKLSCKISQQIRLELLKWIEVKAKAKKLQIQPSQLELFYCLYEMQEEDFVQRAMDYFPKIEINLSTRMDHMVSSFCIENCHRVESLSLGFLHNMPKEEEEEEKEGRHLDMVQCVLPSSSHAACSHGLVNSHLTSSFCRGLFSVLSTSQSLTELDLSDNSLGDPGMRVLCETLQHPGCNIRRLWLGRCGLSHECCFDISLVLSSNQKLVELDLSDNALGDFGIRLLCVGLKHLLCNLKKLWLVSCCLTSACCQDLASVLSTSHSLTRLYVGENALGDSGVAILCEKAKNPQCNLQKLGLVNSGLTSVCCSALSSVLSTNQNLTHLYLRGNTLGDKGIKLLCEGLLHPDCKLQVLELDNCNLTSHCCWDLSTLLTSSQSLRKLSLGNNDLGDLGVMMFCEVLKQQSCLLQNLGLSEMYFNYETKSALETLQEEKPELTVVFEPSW

In order of falling EC50:
1. Nc1nc(NCC23CC(CO)(C2)C3)c2ccc(-c3ccn[nH]3)cc2n1 [Example 34, (3-(((2-amino-7-(1H-pyrazol-5-yl)quinazolin-4-yl)amino)methyl)bicyclo[1.1.1]pentan-1-yl)methanol]  3.96 µM
2. Nc1nc(N[C@@H]2C[C@H]3CC[C@]2(CO)O3)c2ccc(-c3ccn[nH]3)cc2n1 (racemic) [Example 8]  3.7 µM
3. Nc1nc(N[C@H]2C[C@@H]3C[C@H]2[C@@H](O)C3)c2ccc(-c3ccn[nH]3)cc2n1 (racemic) [Example 44, rac-(1R,2S,4S,6S)-6-((2-amino-7-(1H-pyrazol-5-yl)quinazolin-4-yl)amino)bicyclo[2.2.1]heptan-2-ol]  2.37 µM
4. Nc1nc(N[C@H]2C[C@@H]3C[C@H]2[C@@H](O)C3)c2ccc(-c3ccn[nH]3)cc2n1 (single isomer, unassigned) [Example 45A]  2.12 µM
5. Nc1nc(NC23CC4CC(CC(O)(C4)C2)C3)c2ccc(-c3cc[nH]n3)cc2n1 [Example 11, (1s,3r,5R,7S)-3-((2-Amino-7-(1H-pyrazol-3-yl)quinazolin-4-yl)amino)adamantan-1-ol]  2.11 µM
6. Nc1cc(N2C3CCC2COC3)c2ccc(-c3ccn[nH]3)cc2n1 [Example 22]  2 µM
7. CC(C)(C)OC(=O)N1CCC2(CC1)CC2Nc1nc(N)nc2cc(-c3cc[nH]n3)ccc12 (single isomer, unassigned) [Example 28A]  1.94 µM
8. Nc1nc(N[C@@H]2C[C@H]3C[C@H](O)[C@@H]2O3)c2ccc(-c3ccn[nH]3)cc2n1 (racemic) [Example 31B, rac-(1R,2S,4S,6R)-6-((2-amino-7-(1H-pyrazol-5-yl)quinazolin-4-yl)amino)-7-oxabicyclo[2.2.1]heptan-2-ol]  1.85 µM
9. Nc1cc(N[C@H]2[C@@H]3CC[C@@H](C3)[C@H]2CO)c2ccc(-c3ccn[nH]3)cc2n1 (racemic) [Example 17, rac-((1R,2S,3R,4S)-3-((2-amino-7-(1H-pyrazol-5-yl)quinolin-4-yl)amino)bicyclo[2.2.1]heptan-2-yl)methanol]  1.67 µM
10. Nc1nc(N[C@H]2C[C@@H]3C[C@H]2C[C@H]3O)c2ccc(-c3ccn[nH]3)cc2n1 (single isomer, unassigned) [Example 43A]  1.64 µM
11. Nc1cc(N[C@@H]2C[C@H]3C[C@@H]2[C@@H](O)C3)c2ccc(-c3ccn[nH]3)cc2n1 (racemic) [Example 46, rac-(1S,2S,4R,6R)-6-((2-amino-7-(1H-pyrazol-5-yl)quinolin-4-yl)amino)bicyclo[2.2.1]heptan-2-ol]  1.33 µM
12. Nc1nc(N[C@H]2C[C@H]3O[C@@H]2C[C@@H]3O)c2ccc(-c3ccn[nH]3)cc2n1 (racemic) [Example 31A, rac-(1R,2S,4R,5S)-5-((2-amino-7-(1H-pyrazol-5-yl)quinazolin-4-yl)amino)-7-oxabicyclo[2.2.1]heptan-2-ol]  1.21 µM
13. Nc1nc(N[C@H]2C[C@@H]3C[C@H]2C[C@H]3O)c2ccc(-c3ccn[nH]3)cc2n1 (single isomer, unassigned) [Example 43B]  1.11 µM
14. Nc1nc(NC2CC3(CC(O)C3)C2)c2ccc(-c3ccn[nH]3)cc2n1 (stereo not shown) [Example 3, 6-((2-amino-7-(1H-pyrazol-5-yl)quinazolin-4-yl)amino)spiro[3.3]heptan-2-ol]  1 µM
15. Nc1cc(N[C@H]2C3CCC(C3)[C@H]2CO)c2ccc(-c3ccn[nH]3)cc2n1 (single isomer, unassigned) [Example 18B]  0.98 µM
16. Nc1nc(NC2CC3CC(O)C2C3)c2ccc(-c3ccn[nH]3)cc2n1 (single isomer, unassigned) [Example 41B]  0.96 µM
17. Nc1cc(N2C3CCC2COC3)c2ncc(-c3cc[nH]n3)cc2n1 [Example 24, 4-(3-oxa-8-azabicyclo[3.2.1]octan-8-yl)-7-(1H-pyrazol-3-yl)-1,5-naphthyridin-2-amine]  0.89 µM
18. Nc1nc(NCC2C[C@H]3CC[C@@H]2CC3)c2ccc(-c3cc[nH]n3)cc2n1 (stereo partly shown) [Example 39]  0.86 µM
19. Nc1nc(NC2C3CCC(C3)C2CO)c2ccc(-c3ccn[nH]3)cc2n1 (stereo not shown) [Example 5]  0.81 µM
20. Nc1nc(N[C@H]2C[C@@H]3C[C@H]2C[C@H]3O)c2ccc(-c3ccn[nH]3)cc2n1 (racemic) [Example 42]  0.74 µM
21. Nc1cc(N[C@@H]2C[C@@H]3CC[C@H]2O3)c2ccc(-c3ccn[nH]3)cc2n1 (racemic) [Example 30, rac-N4-((1R,2R,4S)-7-oxabicyclo[2.2.1]heptan-2-yl)-7-(1H-pyrazol-5-yl)quinoline-2,4-diamine]  0.65 µM
22. Nc1cc(N[C@@H]2C[C@H]3C[C@@H](O)C[C@H]3C2)c2ccc(-c3ccn[nH]3)cc2n1 [Example 14, (2r,3aR,5r,6aS)-5-((2-amino-7-(1H-pyrazol-5-yl)quinolin-4-yl)amino)octahydropentalen-2-ol]  0.64 µM
23. Nc1cc(NCC23CCC(CC2)OC3)c2ccc(-c3cc[nH]n3)cc2n1 [Example 48, N4-((2-oxabicyclo[2.2.2]octan-4-yl)methyl)-7-(1H-pyrazol-3-yl)quinoline-2,4-diamine]  0.57 µM
24. Nc1cc(NCC23CCC(CC2)OC3)c2ccc(-c3ccsc3)cc2n1 [Example 49, N4-((2-oxabicyclo[2.2.2]octan-4-yl)methyl)-7-(thiophen-3-yl)quinoline-2,4-diamine]  0.54 µM
25. Nc1nc(N[C@@H]2C[C@@H]3CC[C@H]2O3)c2ccc(-c3ccn[nH]3)cc2n1 (racemic) [Example 29, rac-N4-((1R,2R,4S)-7-oxabicyclo[2.2.1]heptan-2-yl)-7-(1H-pyrazol-5-yl)quinazoline-2,4-diamine]  0.5 µM
26. Nc1nc(NC2CC3(CC3)C2)c2ccc(-c3cc[nH]n3)cc2n1 [Example 37]  0.3 µM
27. Nc1cc(N[C@H]2C[C@@H]3C[C@@H](O)[C@H]2O3)c2ccc(-c3ccn[nH]3)cc2n1 (single isomer, unassigned) [Example 32B]  0.25 µM
28. Nc1cc(N[C@H]2C[C@@H]3CC[C@H]2O3)c2ccc(-c3ccn[nH]3)cc2n1 (racemic) [Example 15, rac-N4-((1R,2S,4S)-7-oxabicyclo[2.2.1]heptan-2-yl)-7-(1H-pyrazol-5-yl)quinoline-2,4-diamine]  0.25 µM
29. Nc1nc(NC23CC(C2)C3)c2ccc(-c3cc[nH]n3)cc2n1 [Example 13]  0.2 µM
30. Nc1nc(NC2CC3CC(O)C2C3)c2ccc(-c3ccn[nH]3)cc2n1 (single isomer, unassigned) [Example 41A]  0.16 µM
31. Nc1nc(NC2CC23CC3)c2ccc(-c3cc[nH]n3)cc2n1 (single isomer, unassigned) [Example 36B]  0.13 µM
32. Nc1nc(N[C@@H]2C[C@H]3CC[C@@H]2O3)c2ccc(-c3ccn[nH]3)cc2n1 (racemic) [Example 1, rac-N4-((1R,2S,4S)-7-oxabicyclo[2.2.1]heptan-2-yl)-7-(1H-pyrazol-5-yl)quinazoline-2,4-diamine]  0.12 µM
33. Nc1cc(N[C@H]2[C@@H]3COC[C@@H]32)c2ccc(-c3ccn[nH]3)cc2n1 [Example 20]  0.11 µM
34. Nc1cc(NC2CC3(CC(O)C3)C2)c2ccc(-c3ccn[nH]3)cc2n1 (single isomer, unassigned) [Example 26A, (Sa)-6-(2-amino-7-(1H-pyrazol-5-yl)quinolin-4-ylamino)spiro[3.3]heptan-2-ol]  0.03 µM
